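Results reflect a 48-hour exposure of cells in 96-well plates to compound at five concentrations. Here, GI50 denotes the concentration required for 50% inhibition of growth. TGI: total growth inhibition.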
Tests used:
Assay in all cases: growth of human tumour cells (NCI), 48 h
NCI-H23 lung = tested on: NCI-H23 lung
A549 NSCLC = tested on: A549 NSCLC
HT29 colon = tested on: HT29 colon
UO-31 renal = tested on: UO-31 renal
A498 renal = tested on: A498 renal
K-562 leukemia = tested on: K-562 leukemia
NCI-H522 lung = tested on: NCI-H522 lung
OVCAR-8 ovarian = tested on: OVCAR-8 ovarian
COLO 205 colon = tested on: COLO 205 colon
UACC-62 melanoma = tested on: UACC-62 melanoma
U251 CNS = tested on: U251 CNS
CAKI-1 renal = tested on: CAKI-1 renal
OVCAR-3 ovarian = tested on: OVCAR-3 ovarian
MDA-MB-231 breast = tested on: MDA-MB-231 breast
IGROV1 ovarian = tested on: IGROV1 ovarian
RPMI-8226 leukemia = tested on: RPMI-8226 leukemia
SK-MEL-5 melanoma = tested on: SK-MEL-5 melanoma
MDA-MB-435 = tested on: MDA-MB-435
MDA-N = tested on: MDA-N
MOLT-4 leukemia = tested on: MOLT-4 leukemia
M14 melanoma = tested on: M14 melanoma
SF-268 CNS = tested on: SF-268 CNS
NCI-H226 lung = tested on: NCI-H226 lung
SK-MEL-2 melanoma = tested on: SK-MEL-2 melanoma
SF-295 CNS = tested on: SF-295 CNS
SNB-19 CNS = tested on: SNB-19 CNS
SR leukemia = tested on: SR leukemia
SW-620 colon = tested on: SW-620 colon
NCI-H460 lung = tested on: NCI-H460 lung
T-47D breast = tested on: T-47D breast
SK-MEL-28 melanoma = tested on: SK-MEL-28 melanoma
OVCAR-4 ovarian = tested on: OVCAR-4 ovarian
HCT-15 colon = tested on: HCT-15 colon
SN12C renal = tested on: SN12C renal
MALME-3M melanoma = tested on: MALME-3M melanoma
HL-60(TB) leukemia = tested on: HL-60(TB) leukemia
MCF7 breast = tested on: MCF7 breast
OVCAR-5 ovarian = tested on: OVCAR-5 ovarian
RXF 393 renal = tested on: RXF 393 renal
SNB-75 CNS = tested on: SNB-75 CNS
UACC-257 melanoma = tested on: UACC-257 melanoma
786-0 renal = tested on: 786-0 renal
HCT-116 colon = tested on: HCT-116 colon
CCRF-CEM leukemia = tested on: CCRF-CEM leukemia
SF-539 CNS = tested on: SF-539 CNS
HCC-2998 colon = tested on: HCC-2998 colon
HOP-92 NSCLC = tested on: HOP-92 NSCLC
BT-549 breast = tested on: BT-549 breast
NCI/ADR-RES ovarian = tested on: NCI/ADR-RES ovarian
TK-10 renal = tested on: TK-10 renal
DU-145 prostate = tested on: DU-145 prostate
ACHN renal = tested on: ACHN renal
PC-3 prostate = tested on: PC-3 prostate
KM12 colon = tested on: KM12 colon

## [O]=[W](=[O])([OH])[OH]
NCI-H23 lung
  GI50: > 100 µM
  TGI: > 100 µM
A549 NSCLC
  GI50: > 100 µM
  TGI: > 100 µM
HT29 colon
  GI50: > 100 µM
  TGI: > 100 µM
UO-31 renal
  GI50: > 100 µM
  TGI: > 100 µM
A498 renal
  GI50: > 100 µM
  TGI: > 100 µM
K-562 leukemia
  GI50: > 100 µM
  TGI: > 100 µM
NCI-H522 lung
  GI50: > 100 µM
  TGI: > 100 µM
OVCAR-8 ovarian
  GI50: > 100 µM
  TGI: > 100 µM
COLO 205 colon
  GI50: > 100 µM
  TGI: > 100 µM
UACC-62 melanoma
  GI50: > 100 µM
  TGI: > 100 µM
U251 CNS
  GI50: > 100 µM
  TGI: > 100 µM
CAKI-1 renal
  GI50: > 100 µM
  TGI: > 100 µM
OVCAR-3 ovarian
  GI50: > 100 µM
  TGI: > 100 µM
MDA-MB-231 breast
  GI50: > 100 µM
  TGI: > 100 µM
IGROV1 ovarian
  GI50: > 100 µM
  TGI: > 100 µM
RPMI-8226 leukemia
  GI50: > 100 µM
  TGI: > 100 µM
SK-MEL-5 melanoma
  GI50: > 100 µM
  TGI: > 100 µM
MDA-MB-435
  GI50: > 100 µM
  TGI: > 100 µM
MDA-N
  GI50: > 100 µM
  TGI: > 100 µM
MOLT-4 leukemia
  GI50: > 100 µM
  TGI: > 100 µM
M14 melanoma
  GI50: > 100 µM
  TGI: > 100 µM
SF-268 CNS
  GI50: > 100 µM
  TGI: > 100 µM
NCI-H226 lung
  GI50: > 100 µM
  TGI: > 100 µM
SK-MEL-2 melanoma
  GI50: > 100 µM
  TGI: > 100 µM
SF-295 CNS
  GI50: > 100 µM
  TGI: > 100 µM
SNB-19 CNS
  GI50: > 100 µM
  TGI: > 100 µM
SR leukemia
  GI50: > 100 µM
  TGI: > 100 µM
SW-620 colon
  GI50: > 100 µM
  TGI: > 100 µM
NCI-H460 lung
  GI50: > 100 µM
  TGI: > 100 µM
T-47D breast
  GI50: > 100 µM
  TGI: > 100 µM
SK-MEL-28 melanoma
  GI50: > 100 µM
  TGI: > 100 µM
OVCAR-4 ovarian
  GI50: > 100 µM
  TGI: > 100 µM
HCT-15 colon
  GI50: > 100 µM
  TGI: > 100 µM
SN12C renal
  GI50: > 100 µM
  TGI: > 100 µM
MALME-3M melanoma
  GI50: > 100 µM
  TGI: > 100 µM
HL-60(TB) leukemia
  GI50: > 100 µM
  TGI: > 100 µM
MCF7 breast
  GI50: > 100 µM
  TGI: > 100 µM
OVCAR-5 ovarian
  GI50: > 100 µM
  TGI: > 100 µM
RXF 393 renal
  GI50: > 100 µM
  TGI: > 100 µM
SNB-75 CNS
  GI50: > 100 µM
  TGI: > 100 µM
UACC-257 melanoma
  GI50: > 100 µM
  TGI: > 100 µM
786-0 renal
  GI50: > 100 µM
  TGI: > 100 µM
HCT-116 colon
  GI50: > 100 µM
  TGI: > 100 µM
CCRF-CEM leukemia
  GI50: > 100 µM
  TGI: > 100 µM
SF-539 CNS
  GI50: > 100 µM
  TGI: > 100 µM
HCC-2998 colon
  GI50: > 100 µM
  TGI: > 100 µM
HOP-92 NSCLC
  GI50: > 100 µM
  TGI: > 100 µM
BT-549 breast
  GI50: > 100 µM
  TGI: > 100 µM
NCI/ADR-RES ovarian
  GI50: > 100 µM
  TGI: > 100 µM
TK-10 renal
  GI50: > 100 µM
  TGI: > 100 µM
DU-145 prostate
  GI50: > 100 µM
  TGI: > 100 µM
ACHN renal
  GI50: > 100 µM
  TGI: > 100 µM
PC-3 prostate
  GI50: > 100 µM
  TGI: > 100 µM
KM12 colon
  GI50: > 100 µM
  TGI: > 100 µM

From PubChem BioAssay (NCI)
